From patent US20240366589A1, “NHE3-BINDING COMPOUNDS AND METHODS FOR INHIBITING PHOSPHATE TRANSPORT” (Ardelyx, Inc., priority 2013, published 2024)

Key:
Rat NHE3 = biological target: T1, Rat NHE3 (Rattus norvegicus, UniProt P26433); assay: Cell-based NHE3 activity under persistent conditions (60 min incubation, washout), rat NHE3; conditions: Table E5; 40 min after compound washout; dihydrochloride salt
T1 construct: expressed in transfected cells; host or cells: Opossum kidney (OK) cells (ATCC), electroporation
Procedure: Cell-based activity of NHE3 Activity under ‘Persistent’ Conditions. The ability of compounds to inhibit Rat NHE3-mediated Na^+-dependent H^+ antiport after application and washout was measured using a modification of the pH sensitive dye method described above. Opossum kidney (OK) cells were obtained from the ATCC and propagated per their instructions. The rat NHE3 gene was introduced into OK cells via electroporation, and cells were seeded into 96 well plates and grown overnight. Medium was aspirated from the wells, cells were washed twice with NaCl-HEPES buffer (100 mM NaCl, 50 mM HEPES, 10 mM glucose, 5 mM KCl, 2 mM CaCl2, 1 mM MgCl2, pH 7.4), then overlayed with NaCl-HEPES buffer containing 0-30 μM test compound.
After a 60 min incubation, the test drug containing buffer was aspirated from the cells, cells were washed twice with NaCl-HEPES buffer without drug, then incubated for 30 min at room temperature with NH4Cl-HEPES buffer (20 mM NH4Cl, 80 mM NaCl, 50 mM HEPES, 5 mM KCl, 2 mM CaCl2, 1 mM MgCl2, pH 7.4) containing 5 μM BCECF-AM. Cells were washed twice with Ammonium free, Na^+-free HEPES (100 mM choline, 50 mM HEPES, 10 mM glucose, 5 mM KCl, 2 mM CaCl2, 1 mM MgCl2, pH 7.4) and incubated in the same buffer for 10 minutes at room temperature to lower intracellular pH. […]

human NaP2b (SLC34A2) = biological target: T2, human NaP2b (SLC34A2) (Homo sapiens, UniProt O95436); assay: Cell-based assay of NaP2b activity (33P uptake, transfected HEK293 cells), human NaP2b isoform a; conditions: Table E5; HEK293, 33P uptake; dihydrochloride salt
T2 construct: host or cells: HEK293 cells (ATCC), Lipofectamine 2000, transient
T2 sequence (O95436 1-690): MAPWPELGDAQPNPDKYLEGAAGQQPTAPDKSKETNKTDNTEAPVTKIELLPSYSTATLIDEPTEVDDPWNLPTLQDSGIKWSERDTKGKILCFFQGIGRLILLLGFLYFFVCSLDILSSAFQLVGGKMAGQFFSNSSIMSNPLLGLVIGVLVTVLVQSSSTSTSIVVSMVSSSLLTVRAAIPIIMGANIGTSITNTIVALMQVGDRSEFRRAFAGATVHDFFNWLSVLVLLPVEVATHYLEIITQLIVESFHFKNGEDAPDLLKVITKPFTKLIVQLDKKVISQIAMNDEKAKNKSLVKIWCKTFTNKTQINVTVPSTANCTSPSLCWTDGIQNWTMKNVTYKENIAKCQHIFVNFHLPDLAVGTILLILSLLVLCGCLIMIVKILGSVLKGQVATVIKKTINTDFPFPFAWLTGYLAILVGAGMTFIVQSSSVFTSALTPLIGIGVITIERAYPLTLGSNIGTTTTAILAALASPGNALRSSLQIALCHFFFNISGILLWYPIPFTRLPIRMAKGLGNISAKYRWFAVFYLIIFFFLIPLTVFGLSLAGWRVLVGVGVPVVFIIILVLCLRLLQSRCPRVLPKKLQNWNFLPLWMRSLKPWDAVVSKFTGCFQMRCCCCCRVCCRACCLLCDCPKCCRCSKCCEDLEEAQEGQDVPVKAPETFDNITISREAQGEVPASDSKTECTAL
Procedure: Cell-based assay of NaP2b activity. The rate of phosphate (Pi) uptake into cells was measured using a modification of a literature method (see Mohrmann et al. Am. J Phys. 250(3 pt 1):G323-30, 1986). Briefly, HEK293 cells were transiently transfected with an expression clone encoding either rat or human NaP2b. The next day, transfected cells were treated with a pharmacological agent to minimize endogenous PiT-mediated phosphate transport activity, such that the only remaining sodium-dependent phosphate transport activity is that which was bestowed by introduction of the NaP2b gene. Cells were incubated with radioactive inorganic phosphate in the presence or absence of varying concentrations of test compound. After a short time, cells were washed, harvested, and the amount of hot phosphate taken up in the cells determined by liquid scintillation counting.
HEK293 cells were obtained from the American Type Culture collection and propagated per their instructions. […]
Cells were seeded into 96-well plates at 25,000 cells/well and cultured overnight. […] Cells were lysed by addition of 20 μL 0.1% Tween 80 followed by 100 μL scintillation fluid, and counted using a TopCount (Perkin Elmer). The pIC50 (the negative log of the IC50) values of the test compounds were calculated using GraphPad Prism.

T1 sequence (P26433 29-831): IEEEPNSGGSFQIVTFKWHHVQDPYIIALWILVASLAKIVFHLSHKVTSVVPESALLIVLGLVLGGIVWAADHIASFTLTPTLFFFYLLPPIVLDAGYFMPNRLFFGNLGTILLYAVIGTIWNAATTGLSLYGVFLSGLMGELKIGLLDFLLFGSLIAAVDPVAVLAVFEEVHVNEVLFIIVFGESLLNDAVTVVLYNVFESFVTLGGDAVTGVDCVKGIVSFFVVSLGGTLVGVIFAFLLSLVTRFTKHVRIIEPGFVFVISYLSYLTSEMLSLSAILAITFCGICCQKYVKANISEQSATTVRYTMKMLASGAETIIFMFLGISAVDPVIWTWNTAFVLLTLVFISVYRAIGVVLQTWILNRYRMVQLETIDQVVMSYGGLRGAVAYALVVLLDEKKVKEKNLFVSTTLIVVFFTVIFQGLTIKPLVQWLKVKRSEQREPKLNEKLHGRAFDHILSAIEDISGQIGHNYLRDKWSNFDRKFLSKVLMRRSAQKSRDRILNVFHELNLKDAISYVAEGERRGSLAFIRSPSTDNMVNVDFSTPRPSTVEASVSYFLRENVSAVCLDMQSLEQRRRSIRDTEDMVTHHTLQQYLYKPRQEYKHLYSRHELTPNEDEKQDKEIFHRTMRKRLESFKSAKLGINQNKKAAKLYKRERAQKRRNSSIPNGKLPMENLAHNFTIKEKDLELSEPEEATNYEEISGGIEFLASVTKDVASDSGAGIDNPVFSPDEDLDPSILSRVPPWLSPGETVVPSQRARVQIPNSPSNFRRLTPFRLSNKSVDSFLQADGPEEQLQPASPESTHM

Structure (SMILES) | Rat NHE3 pIC50 Persistent (Rat NHE3) | pIC50 Human Nap2B (human NaP2b (SLC34A2))
CN1Cc2c(Cl)cc(Cl)cc2[C@@H](c2cccc(S(=O)(=O)NCCOCCOCCNC(=O)NCCCCNC(=O)NCCOCCOCCNS(=O)(=O)c3cccc([C@H]4CN(C)Cc5c(Cl)cc(Cl)cc54)c3)c2)C1 [Cpd 004] | 5.6 | 
CN1Cc2c(Cl)cc(Cl)cc2[C@H](c2cccc(S(=O)(=O)NCCOCCOCCNC(=O)NCCCCNC(=O)NCCOCCOCCNS(=O)(=O)c3cccc([C@@H]4CN(C)Cc5c(Cl)cc(Cl)cc54)c3)c2)C1 [Cpd 002] | 8.4 | <4.5
